Read-outs that look alike come from different tables or passages of the source.
Key:
[1] = format: physicochemical; conditions: for Free-throw 3 times Accuracy: 3 cycles freezing at about −20°C and thawing at room temperature; for 24 h stability Accuracy: autosampler, room temperature
Description: The standard stock solutions of gallic acid, bergenin, epicatechin, epicatechin gallate, isoquercitrin, and quercetin-3-rhamnoside were prepared by dissolving each separately in methanol to achieve a concentration of 1 mg mL^−1 for use as the stock solution. The three ISs including ferulic acid, puerarin, and warfarin were prepared using the same procedure as mentioned above with the concentration being 1 μg mL^−1. Calibration standard solutions were prepared by spiking the different concentrations of the standard mixture working solutions into plasma to achieve the concentration range of 2–500 ng mL^−1 for gallic acid; 2–500 ng mL^−1 for bergenin; 4–1000 ng mL^−1 for epicatechin; 2–500 ng mL^−1 for epicatechin gallate; 1–250 ng mL^−1 for isoquercitrin; and 0.4–100 ng mL^−1 for quercetin-3-rhamnoside. The QC samples were prepared by spiking 10 μL of the standard stock solutions into 100 μL of blank plasma to achieve LLOQ, low, medium and high concentrations of 2, 6, 20, and 200 ng mL^−1 for gallic acid; 2, 6, 20, and 200 ng mL^−1 for bergenin; 4, 12, 40, and 400 ng mL^−1 for epicatechin; 2, 6, 20, and 200 ng mL^−1 for epicatechin gallate; 1, 3, 10, and 100 ng mL^−1 for isoquercitrin; and 0.4, 1.2, 4, and 40 ng mL^−1 for quercetin-3-rhamnoside.
The stability for 6 analysis compounds including 24 h stability (keeping the sample in autosampler conditions of room temperature for 24 h), three freeze/thaw cycles (subjected to 3 cycles of freezing at about −20°C and thawing at room temperature), and a long-term stability (stored at about −80°C for 4 weeks) of analytes in plasma was performed by analyzing QC samples at four different concentrations.

[2] = Pharmacokinetic study in rats after oral administration of A. japonica extract (LC-MS/MS of plasma); format: in vivo; conditions: male, Sprague-Dawley; for Tmax: n = 10; for MRT: read-out: MRT(0–t24 h); for MRT inf: read-out: MRT(0–∞); for Cmax: read-out: peak plasma concentration (Cmax)
Description: The LC-MS/MS system consisted of an Agilent 1200 system coupled with a binary pump (G1312A), an autosampler (G13678), a vacuum degasser (G1322A), and an API 3200 triple quadrupole mass spectrometer with an ESI source. […] The flow rate was set at 300 μL min^−1 and the inject volume was 10 μL.
The analytes were determined in negative mode and quantified by multiple-reaction monitoring (MRM) mode. The source parameters were as follows: curtain gas, 25 psi; collision gas, 12 psi; ion spray voltage, −4500 V; temperature, 500°C; ion source gas 1, 45 psi; and ion source gas 2, 55 psi, respectively. Data acquisition was operated by Analyst 1.4.2 software (AB Sciex).
100 μL of plasma sample, 10 μL of the IS solutions, and 10 μL of 30% formic acid were added to the tube. Samples were vortex-mixed for 1 min, and 400 μL of acetonitrile was then used in precipitating the protein, after which they were centrifuged for 10 min at 14,000 rpm. The supernatant was transferred into another centrifuge tube and evaporated using nitrogen gas to dryness. The dried residue was reconstituted using 100 μL of methanol. The sample was further shaken and ultrasonicated for 2 min to ensure that it was well dissolved. It was subsequently centrifuged at 14,000 rpm for 10 min, and 10 μL aliquot of the solution was injected into the LC-MS/MS system for analysis.
Ten male Sprague-Dawley rats (270–280 g) were kept at the animal center of Tianjin University of Traditional Chinese Medicine (Tianjin, China) under environmentally controlled conditions. […] According to the clinical dose used in human, the rat dose of A. japonicae extracts used was 0.93 g kg^−1. […] After blood sample collection into the heparinized 1.5 mL polythene tubes and centrifugation at 6000 rpm for 10 min, the plasma was transferred into clean tubes and stored in a freezer at −20°C until analysis. The pharmacokinetic parameters were determined using pharmacokinetics program (DAS1.0 Medical College of Wannan, China) and performing a one compartmental analysis.

[3] = rat plasma, LLOQ QC concentration, n = 6
[4] = rat plasma, high QC concentration, n = 6
[5] = rat plasma, low QC concentration, n = 6
[6] = rat plasma, medium QC concentration, n = 6
[7] = rat, plasma, po, 0.93 g/kg, oral A. japonica extract 0.93 g kg^−1, one compartment model, read-out: AUC(0–24 h)
[8] = rat, plasma, po, 0.93 g/kg, oral A. japonica extract 0.93 g kg^−1, read-out: area under the curve (AUC0–24 h)
[9] = rat plasma, oral A. japonica extract 0.93 g kg^−1, one compartment model
[10] = rat plasma, oral A. japonica extract 0.93 g kg^−1
[11] = stored at about −80°C for 4 weeks, rat plasma, LLOQ QC concentration, n = 6
[12] = stored at about −80°C for 4 weeks, rat plasma, high QC concentration, n = 6
[13] = stored at about −80°C for 4 weeks, rat plasma, medium QC concentration, n = 6
[14] = in vivo, rat plasma, oral A. japonica extract 0.93 g kg^−1, one compartment model

Row | SMILES | Free-throw 3 times Accuracy [1, 3] [%] | Free-throw 3 times Accuracy [1, 4] [%] | Free-throw 3 times Accuracy [1, 5] [%] | Free-throw 3 times Accuracy [1, 6] [%] | AUC(0-t) [2, 7] [ng·h/mL] | AUC(0-t) [2, 8] [ng·h/mL] | AUC(0-inf) [2, 9] [ng·h/mL] | half-life [2, 9] [h] | Tmax [2, 9] [h] | MRT [2, 9] [h] | MRT inf [2, 9] [h] | Cmax [2, 10] [ng/mL] | 24 h stability Accuracy ([1]; LLOQ QC concentration, n = 6) [%] | 24 h stability Accuracy ([1]; high QC concentration, n = 6) [%] | 24 h stability Accuracy ([1]; low QC concentration, n = 6) [%] | 24 h stability Accuracy ([1]; medium QC concentration, n = 6) [%] | Long stability (1 month) Accuracy [1, 11] [%] | Long stability (1 month) Accuracy [1, 12] [%] | Long stability (1 month) Accuracy [1, 13] [%] | also measured
1 | COc1c(O)cc2c(c1O)[C@@H]1O[C@H](CO)[C@@H](O)[C@H](O)[C@H]1OC2=O [Bergeninum, bergenin] | 106 | 87.3 | 104 | 94.0 | 1740 ± 666 | 1740 ± 666 | 1840 ± 769 | 3.87 ± 1.62 | 0.86 ± 0.52 | 6.04 ± 1.05 | 7.26 ± 2.17 | 288 ± 107 | – | – | – | – | – | – | – | –
2 | O=C(O[C@@H]1Cc2c(O)cc(O)cc2O[C@@H]1c1ccc(O)c(O)c1)c1cc(O)c(O)c(O)c1 [Epicatechin gallate, epicatechin gallate] | 109 | 88.0 | 98.4 | 91.4 | – | – | – | – | – | – | – | – | – | – | – | – | – | – | – | –
3 | Oc1cc(O)c2c(c1)O[C@H](c1ccc(O)c(O)c1)[C@H](O)C2 [Epicatechin, epicatechin] | 105 | 99.4 | 111 | 111 | – | – | – | – | – | – | – | – | – | – | – | – | – | – | – | –
4 | O=C(O)c1cc(O)c(O)c(O)c1 [Gallic acid, gallic acid] | 92.5 | 101 | 114 | 94.0 | 194 ± 44 | 194 ± 44 | 200 ± 43.9 | 3.21 ± 4.56 | 1.4 ± 1.13 | 4.5 ± 1.15 | 5.33 ± 1.61 | 35.5 ± 10.2 | 116 | 103 | 111 | 85.8 | 95.6 | 92.7 | 98.4 | Long stability (1 month) Accuracy ([1]; rat, 4 weeks): 101%
5 | O=c1c(O[C@@H]2O[C@H](CO)[C@@H](O)[C@H](O)[C@H]2O)c(-c2ccc(O)c(O)c2)oc2cc(O)cc(O)c12 [Isoquercitrin, isoquercitrin] | 105 | 91.0 | 103 | 96.9 | – | – | – | – | – | – | – | – | – | – | – | – | – | – | – | –
6 | C[C@@H]1O[C@@H](Oc2c(-c3ccc(O)c(O)c3)oc3cc(O)cc(O)c3c2=O)[C@H](O)[C@H](O)[C@H]1O [Quercetin-3-rhamnoside, quercetin-3-rhamnoside] | 115 | 85.0 | 90.4 | 93.3 | – | – | – | – | – | – | – | – | 93.7 | 87.3 | 96.3 | 93.3 | 114 | 85.0 | 90.6 | Long stability (1 month) Accuracy ([1]; stored at about −80°C for 4 weeks, rat plasma, low QC concentration, n = 6): 92.2%; AUC(0-inf) [2, 14]: 6.95 ± 20.7 ng·h/mL; half-life [2, 14]: 2.59 ± 2.8 h; Tmax [2, 14]: 0.5 ± 0.6 h; MRT [2, 14]: 5.08 ± 6.36 h; MRT inf [2, 14]: 7.09 ± 19.6 h; AUC(0-t) ([2]; in vivo, rat plasma, oral A. japonica extract 0.93 g kg^−1, read-out: area under the curve (AUC0–24 h)): 6.44 ± 12 ng·h/mL; Cmax ([2]; in vivo, rat plasma, oral A. japonica extract 0.93 g kg^−1): 7.08 ± 8.28 ng/mL

Reference: publication PMC5820647, “Simultaneous Quantification of Gallic Acid, Bergenin, Epicatechin, Epicatechin Gallate, Isoquercitrin, and Quercetin-3-Rhamnoside in Rat Plasma by LC-MS/MS Method and Its Application to Pharmacokinetics after Oral Administration of Ardisia japonica Extract” (Evidence-based Complementary and Alternative Medicine : eCAM, 2018)
